Measurements from ChEMBL document CHEMBL1146499, “New compounds from an extract of Vernonia colorata leaves with anti-inflammatory activity” (2004).
Calls of active or inactive are those of the source. The rule behind the calls is not given here.

Experiments:
Rattus norvegicus [1] = experiment: Antiinflammatory activity against carrageenan-induced paw edema in Wistar rat at 1.3 mg/kg, po; assay type: functional, organism-based; design: dose 1.3 mg/kg
Rattus norvegicus [2] = experiment: Antiinflammatory activity against carrageenan-induced paw edema in Wistar rat at 5 mg/kg, po; assay type: functional
Rattus norvegicus [3] = experiment: Antiinflammatory activity against carrageenan-induced paw edema in Wistar rat at 1.8 mg/kg, po; assay type: functional, organism-based; design: dose 1.8 mg/kg
Rattus norvegicus [4] = experiment: Antiinflammatory activity against carrageenan-induced paw edema in Wistar rat at 1.08 mg/kg, po; assay type: functional, organism-based; design: dose 1.08 mg/kg
Rattus norvegicus [5] = experiment: Antiinflammatory activity against carrageenan-induced paw edema in Wistar rat at 1.7 mg/kg, po; assay type: functional, organism-based; design: dose 1.7 mg/kg

C[C@@]12CCC[C@H]1C1=C(CC2)[C@@]2(C)CC[C@H](O[C@@H]3O[C@H](CO[C@@H]4O[C@H](CO)[C@@H](O)[C@H](O)[C@H]4O)[C@@H](O)[C@H](O)[C@H]3O)CC2CC1 (stereo not given in full)
Activity (Rattus norvegicus [1]): inactive

COc1ccc2c(c1)c(CC(=O)O)c(C)n2C(=O)c1ccc(Cl)cc1 [INDOMETHACIN]
inhibition in vivo at 5 mg/kg (Rattus norvegicus [2]): 85%

C[C@@]12CCC[C@H]1C1=C(CC2)[C@@]2(C)CC[C@H](O[C@@H]3O[C@H](CO[C@@H]4O[C@H](CO)[C@@H](O)[C@H](O)[C@H]4O)[C@@H](O)[C@H](O)[C@H]3O[C@@H]3O[C@H](CO)[C@H](O)[C@H](O)[C@H]3O)CC2CC1 (stereo not given in full)
Activity (Rattus norvegicus [3]): inactive

C[C@H]1CO[C@@]2(C)O[C@@H]3C([C@@]45CCC=C4C4=C(CC5)[C@@]5(C)CC[C@H](O[C@@H]6O[C@H](CO)[C@@H](O)[C@H](O)[C@H]6O[C@@H]6O[C@H](CO)[C@H](O)[C@H](O)[C@H]6O)CC5CC4)[C@@H](O)O[C@@H]3C12O (stereo not given in full)
Activity (Rattus norvegicus [4]): inactive

CC(=O)OC[C@H]1O[C@@H](O[C@H]2CC[C@]3(C)C4=C(CCC3C2)C2=CCC[C@@]2(C2[C@H]3O[C@]5(C)OC[C@H](C)C5(O)[C@H]3O[C@@H]2O)CC4)[C@H](O[C@@H]2O[C@H](CO)[C@H](O)[C@H](O)[C@H]2O)[C@@H](O)[C@@H]1O (stereo not given in full)
Activity (Rattus norvegicus [5]): inactive
